{
  "source": "patent US8741836B2",
  "about": "“Polypeptides” (Novo Nordisk A/S, priority 2011, dated 2014)",
  "key": {"[1]": {"molecular_target": "T1, human calcitonin receptor (Homo sapiens, UniProt P30988)", "T1 construct": "expressed in transfected cells; CRE-luciferase reporter", "T1 sequence (P30988 25-474)": "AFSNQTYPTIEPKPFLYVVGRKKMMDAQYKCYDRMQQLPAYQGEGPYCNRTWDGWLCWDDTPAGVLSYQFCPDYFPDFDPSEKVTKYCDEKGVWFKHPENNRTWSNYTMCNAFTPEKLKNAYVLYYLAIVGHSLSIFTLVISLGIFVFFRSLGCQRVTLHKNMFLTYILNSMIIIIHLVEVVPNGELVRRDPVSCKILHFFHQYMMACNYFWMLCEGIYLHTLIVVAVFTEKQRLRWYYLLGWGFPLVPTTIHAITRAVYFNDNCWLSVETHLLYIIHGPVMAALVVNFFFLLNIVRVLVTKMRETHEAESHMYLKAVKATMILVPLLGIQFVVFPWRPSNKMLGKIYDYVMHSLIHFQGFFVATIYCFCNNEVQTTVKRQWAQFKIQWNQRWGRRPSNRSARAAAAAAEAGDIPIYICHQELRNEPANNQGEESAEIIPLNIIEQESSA", "assay": "Assay (II)a functional assay, human calcitonin receptor (CRE luciferase reporter in BHK cells)", "type": "cell-based", "from_the_text": "1. Luciferase Assay Outline\nActivation of calcitonin and amylin (coexpression of calcitonin receptor and receptor activity modifying proteins (RAMP)) receptors lead to increased intracellular concentrations of cAMP. Consequently, transcription is activated by promoters containing multiple copies of the cAMP response element (CRE). It is thus possible to measure amylin activity by the use of a CRE luciferase reporter gene introduced into BHK cells also expressing calcitonin or amylin receptors.\nA BHK570 cell line was stably transfected with the human calcitonin receptor and a CRE-responsive luciferase reporter gene. The cell line was further transfected with RAMP-3, using standard methods. This turns the calcitonin receptor into an amylin 3(a) receptor. Methotrexate, Neomycin, and Hygromycin are selection markers for luciferase, the calcitonin receptor, and RAMP-3, respectively.\nTo perform activity assays, BHK calcitonin (a) receptor- or amylin 3(a)-receptor/CRE-luc cells were seeded in white 96 well culture plates at a density of about 20.000 cells/well. […] After incubation overnight at 37° C. and 5% CO2, the growth medium was replaced by 50 μl/well assay medium (DMEM (without phenol red), Glutamax™, 10% FBS, and 10 mM Hepes, pH 7.4). Further, 50 μl/well of standard or sample in assay buffer were added. After 3 hours incubation at 37° C. and 5% CO2, the assay medium with standard or sample were removed and replaced by 100 μl/well PBS. Further, 100 μl/well LucLite™ was added. The plates were sealed and incubated at room temperature for 30 minutes. Finally, luminescence was measured on a TopCounter (Packard) in SPC (single photon counting) mode."}, "[2]": {"assay": "Assay (III) ThT fibrillation assay for physical stability", "type": "physicochemical", "procedure,_shortened": "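Freshly prepared, pH-adjusted formulations with 1 μM ThT incubated at 37 °C under 960 rpm orbital shaking (1 mm), fluorescence (ex 444, em 485 nm) read every 20 min. […] Peptide content before and after measured by reverse-phase HPLC against pramlintide standard.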"}},
  "note": "pEC50: −log10 of the molar value. Where two headings read alike, the source gives them in different places. Starred links: 1 amine or outer side, 2 acyl side, 3 side chain; linkers in the order of their positions; H or OH if unused. Positions of bridges follow the written chain, without caps; N, C: chain ends. Residues, ends and D or L forms follow the SMILES beside them. Groups on a side chain read outwards from the residue. *: point of attachment. C18 diacid = O=C(O)CCCCCCCCCCCCCCCCC(=O)*; γGlu = O=C(O)[C@H](CCC(=O)[*:2])N[*:1]; AEEA = NCCOCCOCC(=O)O",
  "data": [
    {"smiles": "CC[C@H](C)[C@H](NC(=O)[C@@H]1CCCN1C(=O)CNC(=O)[C@H](Cc1ccccc1)NC(=O)[C@H](CC(N)=O)NC(=O)[C@H](CCCCNC(=O)COCCOCCNC(=O)COCCOCCNC(=O)CC[C@H](NC(=O)CCCCCCCCCCCCCCCCC(=O)O)C(=O)O)NC(=O)[C@H](CO)NC(=O)[C@H](CO)NC(=O)[C@H](Cc1c[nH]cn1)NC(=O)[C@H](Cc1c[nH]cn1)NC(=O)[C@H](CC(C)C)NC(=O)[C@H](Cc1ccccc1)NC(=O)[C@H](CCC(=O)O)NC(=O)[C@H](C)NC(=O)[C@H](CC(C)C)NC(=O)[C@H](CCCNC(=N)N)NC(=O)[C@H](CCC(N)=O)NC(=O)[C@@H](NC(=O)[C@H](C)NC(=O)[C@@H]1CSSC[C@H](NC(=O)[C@@H](N)CCCCN)C(=O)N[C@@H](CC(N)=O)C(=O)N[C@@H]([C@@H](C)O)C(=O)N[C@@H](C)C(=O)N[C@@H]([C@@H](C)O)C(=O)N1)[C@@H](C)O)C(=O)N[C@@H](CC(C)C)C(=O)N1CCC[C@H]1C(=O)N1CCC[C@H]1C(=O)N[C@H](C(=O)N[C@@H](CC(N)=O)C(=O)N[C@H](C(=O)NCC(=O)N[C@@H](CO)C(=O)N[C@@H](CCC(=O)O)C(=O)N[C@H](C(=O)N[C@@H](Cc1ccc(O)cc1)C(N)=O)[C@@H](C)O)C(C)C)[C@@H](C)O", "note": "[Example 74, N-epsilon21-[2-(2-{2-[2-(2-{2-[(S)-4-Carboxy-4-(17-carboxyheptadecanoylamino)butyrylamino]ethoxy}ethoxy)acetylamino]ethoxy}ethoxy)acetyl]-[Glu14,His17,Lys21,Glu35]-pramlintide] (H-KCNTATCATQRLAEFLHHSSK([AEEA-AEEA-γGlu-C18 diacid])NFGPILPPTNVGSETY-NH2; disulfide 2-7 (inferred); N-terminus and C-terminus assumed)", "values": [
      {"measurement": "pEC50", "setting": "[1]; Table 7, human calcitonin (CTa) receptor", "value": 9.67},
      {"measurement": "pEC50", "setting": "[1]; Table 11, human calcitonin receptor, read-out: CTa receptor human EC50", "value": 9.67},
      {"measurement": "ThT pH 4.0 lag time (physical stability in fibrillogenesis assay)", "setting": "[2]; pH 4.0", "value": ">45", "unit": "h"},
      {"measurement": "ThT pH 4.0 lag time", "setting": "[2]; pH 4.0, ThT fibrillation assay", "value": ">45", "unit": "h"}
    ]}
  ]
}
